SMILES strings stand for the structures.

This experiment has as its system HIV. Description: MT4 assay: antiviral HIV activity (cell protection, cell titer glo readout at 96 hours). The note with it: Human immunodeficiency virus 1, MT4, 96 h, MT4 cells, cell titer glo readout at 96 hours, 10 point dose response; read-out: HIV MT4 Assay IC50. The class given is cell-based. An outline of the steps:
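MT-4 cells infected with HIV, with inhibition readout by CellTiter-Glo luminescence at 96 h relative to no-compound control. Cytotoxicity measured in parallel under the same conditions. IC50 from a 10-point, 3-4-fold dilution series spanning >1000-fold, fitted with a four-parameter logistic equation.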
On to `Cc1nc2c(cc(-c3nnc(N4CCN(S(=O)(=O)N5CCCCC5)CC4)o3)n2C)c(-c2cc(F)c3c(c2C)CCCO3)c1[C@H](OC(C)(C)C)C(=O)O` [Example 319], for which the half-maximal inhibitory concentration (IC50) is 4.9 nM. The figure for `Cc1nc2c(cc(-c3nnc(N4CCC(N5CCS(=O)(=O)CC5)CC4)o3)n2C)c(-c2cc(F)c3c(c2C)CCCO3)c1[C@H](OC(C)(C)C)C(=O)O` [Example 320] is 380 nM.

Regarding `Cc1nc2c(cc(-c3nnc(N4CCC5(CCCCC5)CC4)o3)n2C)c(-c2cc(F)c3c(c2C)CCCO3)c1[C@H](OC(C)(C)C)C(=O)O` [Example 321], the IC50 was found to be 13.5 nM. The figure for `Cc1nc2c(cc(-c3nnc(N4CCN(CC5CCOCC5)CC4)o3)n2C)c(-c2cc(F)c3c(c2C)CCCO3)c1[C@H](OC(C)(C)C)C(=O)O` [Example 322] is 4.6 nM; for `Cc1nc2c(cc(-c3nnc(N4CCC(OC(C)C)CC4)o3)n2C)c(-c2cc(F)c3c(c2C)CCCO3)c1[C@H](OC(C)(C)C)C(=O)O` [Example 323] it is 5.2 nM; for `Cc1nc2c(cc(-c3nnc(N4CCC[C@@H]4C)o3)n2C)c(-c2cc(F)c3c(c2C)CCCO3)c1[C@H](OC(C)(C)C)C(=O)O` [Example 324] it is 4 nM. The figure for `Cc1nc2c(cc(-c3nnc(N4CCC4)o3)n2C)c(-c2cc(F)c3c(c2C)CCCO3)c1[C@H](OC(C)(C)C)C(=O)O` [Example 325] is 13.6 nM. In the case of `Cc1nc2c(cc(-c3nnc(N4CCN5CCC[C@@H]5C4)o3)n2C)c(-c2cc(F)c3c(c2C)CCCO3)c1[C@H](OC(C)(C)C)C(=O)O` [Example 326], the IC50 came to 3.8 nM. The figure for `Cc1nc2c(cc(-c3nnc(N4CCC(n5cccn5)CC4)o3)n2C)c(-c2cc(F)c3c(c2C)CCCO3)c1[C@H](OC(C)(C)C)C(=O)O` [Example 327] is 9.4 nM; for `Cc1nc2c(cc(-c3nnc(N4CCN(C5CCOCC5)C[C@H]4C)o3)n2C)c(-c2cc(F)c3c(c2C)CCCO3)c1[C@H](OC(C)(C)C)C(=O)O` [Example 328] it is 4.2 nM; for `Cc1nc2c(cc(-c3nnc(N4CCOC[C@@H]4C)o3)n2C)c(-c2cc(F)c3c(c2C)CCCO3)c1[C@H](OC(C)(C)C)C(=O)O` [Example 329] it is 13.4 nM. The figure for `COC[C@H]1CCCN1c1nnc(-c2cc3c(-c4cc(F)c5c(c4C)CCCO5)c([C@H](OC(C)(C)C)C(=O)O)c(C)nc3n2C)o1` [Example 330] is 12.8 nM; for `Cc1nc2c(cc(-c3nnc(N4CC[C@@H](F)C4)o3)n2C)c(-c2cc(F)c3c(c2C)CCCO3)c1[C@H](OC(C)(C)C)C(=O)O` [Example 331] it is 4.3 nM.

With `Cc1nc2c(cc(-c3nnc(N4CC[C@H](N(C)C)C4)o3)n2C)c(-c2cc(F)c3c(c2C)CCCO3)c1[C@H](OC(C)(C)C)C(=O)O` [Example 332], the IC50 was 23.8 nM. In the case of `Cc1nc2c(cc(-c3nnc(N4CCN5CCOC[C@@H]5C4)o3)n2C)c(-c2cc(F)c3c(c2C)CCCO3)c1[C@H](OC(C)(C)C)C(=O)O` [Example 333], the IC50 came out at 16.5 nM. Consider `Cc1nc2c(cc(-c3nnc(N4CCOC[C@H]4C)o3)n2C)c(-c2cc(F)c3c(c2C)CCCO3)c1[C@H](OC(C)(C)C)C(=O)O` [Example 334], for which the IC50 was determined as 10.4 nM. The figure for `Cc1nc2c(cc(-c3nnc(N4CCN(C5CCOCC5)[C@@H](C)C4)o3)n2C)c(-c2cc(F)c3c(c2C)CCCO3)c1[C@H](OC(C)(C)C)C(=O)O` [Example 335] is 10.1 nM. Then `Cc1nc2c(cc(-c3nnc(N4CCN(C5CC5)CC4)o3)n2C)c(-c2cc(F)c3c(c2C)CCCO3)c1[C@H](OC(C)(C)C)C(=O)O` [Example 336], with 4.5 nM; and `Cc1nc2c(cc(-c3nnc(N4CCN(CC5CC5)CC4)o3)n2C)c(-c2cc(F)c3c(c2C)CCCO3)c1[C@H](OC(C)(C)C)C(=O)O` [Example 337], with 4.6 nM.

Regarding `COCC1CCCN1C1CCN(c2nnc(-c3cc4c(-c5cc(F)c6c(c5C)CCCO6)c([C@H](OC(C)(C)C)C(=O)O)c(C)nc4n3C)o2)CC1` (stereo partly drawn) [Example 339], the IC50 was found to be 28.8 nM. The figure for `Cc1nc2c(cc(-c3nnc(N4CCN(CCN5CCOCC5)CC4)o3)n2C)c(-c2cc(F)c3c(c2C)CCCO3)c1[C@H](OC(C)(C)C)C(=O)O` [Example 340] is 43.2 nM; for `Cc1nc2c(cc(-c3nnc(NCCN4CCN(C)CC4)o3)n2C)c(-c2cc(F)c3c(c2C)CCCO3)c1[C@H](OC(C)(C)C)C(=O)O` [Example 341] it is 1250 nM. Turning to `Cc1nc2c(cc(-c3nnc(N4CCN(C(C)C)CC4)o3)n2C)c(-c2cc(F)c3c(c2C)CCCO3)c1[C@H](OC(C)(C)C)C(=O)O` [Example 342], the IC50 came to 5.4 nM. The figure for `Cc1nc2c(cc(-c3nnc(N(C)CCN4CCOCC4)o3)n2C)c(-c2cc(F)c3c(c2C)CCCO3)c1[C@H](OC(C)(C)C)C(=O)O` [Example 343] is 10.6 nM. Turning to `Cc1nc2c(cc(-c3nnc(N4CCC(N5CCCC5)CC4)o3)n2C)c(-c2cc(F)c3c(c2C)CCCO3)c1[C@H](OC(C)(C)C)C(=O)O` [Example 344], the IC50 was determined as 130 nM. Then `Cc1nc2c(cc(-c3nnc(N4CCCCC4)o3)n2C)c(-c2cc(F)c3c(c2C)CCCO3)c1[C@H](OC(C)(C)C)C(=O)O` [Example 345], with 2.7 nM; and `Cc1nc2c(cc(-c3nnc(N4CCC(F)CC4)o3)n2C)c(-c2cc(F)c3c(c2C)CCCO3)c1[C@H](OC(C)(C)C)C(=O)O` [Example 346], with 2.7 nM; and `Cc1nc2c(cc(-c3nnc(N4CCN(C5CCOCC5)[C@H](C)C4)o3)n2C)c(-c2cc(F)c3c(c2C)CCCO3)c1[C@H](OC(C)(C)C)C(=O)O` [Example 347], with 6.3 nM. The figure for `Cc1nc2c(cc(-c3nnc(N4CCN5CCC[C@H]5C4)o3)n2C)c(-c2cc(F)c3c(c2C)CCCO3)c1[C@H](OC(C)(C)C)C(=O)O` [Example 348] is 3.1 nM; for `COC[C@@H]1CCCN1c1nnc(-c2cc3c(-c4cc(F)c5c(c4C)CCCO5)c([C@H](OC(C)(C)C)C(=O)O)c(C)nc3n2C)o1` [Example 349] it is 3 nM; for `Cc1nc2c(cc(-c3nnc(N4CCCOCC4)o3)n2C)c(-c2cc(F)c3c(c2C)CCCO3)c1[C@H](OC(C)(C)C)C(=O)O` [Example 350] it is 11.9 nM.

For the molecule `Cc1nc2c(cc(-c3nnc(N4C[C@H](C)O[C@@H](C)C4)o3)n2C)c(-c2cc(F)c3c(c2C)CCCO3)c1[C@H](OC(C)(C)C)C(=O)O` [Example 351], the IC50 came out at 2 nM. The figure for `Cc1nc2c(cc(-c3nnc(N4CCOC(C)(C)C4)o3)n2C)c(-c2cc(F)c3c(c2C)CCCO3)c1[C@H](OC(C)(C)C)C(=O)O` [Example 352] is 5.5 nM. Then `Cc1nc2c(cc(-c3nnc(N4CC5CCC(C4)O5)o3)n2C)c(-c2cc(F)c3c(c2C)CCCO3)c1[C@H](OC(C)(C)C)C(=O)O` [Example 353], with 7 nM; and `Cc1nc2c(cc(-c3cc(N4CCN(C5CCOCC5)CC4)ncn3)n2C)c(-c2cc(F)c3c(c2C)CCCO3)c1[C@H](OC(C)(C)C)C(=O)O` [Example 359], with 4.1 nM.

As to `Cc1nc2c(cc(-c3cncc(N4CCN(C5CCOCC5)CC4)n3)n2C)c(-c2cc(F)c3c(c2C)CCCO3)c1[C@H](OC(C)(C)C)C(=O)O` [Example 360], the IC50 turned out to be 30.8 nM.

For the molecule `Cc1nc2c(cc(-c3cncc(N4CCN(C5CCOCC5)CC4)c3)n2C)c(-c2cc(F)c3c(c2C)CCCO3)c1[C@H](OC(C)(C)C)C(=O)O` [Example 361], the IC50 turned out to be 14.7 nM. The figure for `Cc1nc2c(cc(-c3cc(N4CCN(C5CCOCC5)CC4)ccn3)n2C)c(-c2cc(F)c3c(c2C)CCCO3)c1[C@H](OC(C)(C)C)C(=O)O` [Example 362] is 5.8 nM; for `Cc1nc2c(cc(-c3ccnc(N4CCN(C5CCOCC5)CC4)n3)n2C)c(-c2cc(F)c3c(c2C)CCCO3)c1[C@H](OC(C)(C)C)C(=O)O` [Example 363] it is 9.9 nM. Then `Cc1nc2c(cc(-c3cc(NCCN4CCOCC4)ncn3)n2C)c(-c2cc(F)c3c(c2C)CCCO3)c1[C@H](OC(C)(C)C)C(=O)O` [Example 365], with 86.7 nM; and `Cc1nc2c(cc(-c3cc(NCCC(C)(C)C)ncn3)n2C)c(-c2cc(F)c3c(c2C)CCCO3)c1[C@H](OC(C)(C)C)C(=O)O` [Example 366], with 15.2 nM.

`Cc1nc2c(cc(-c3nsc(N4CCNCC4)n3)n2C)c(-c2cc(F)c3c(c2C)CCCO3)c1[C@H](OC(C)(C)C)C(=O)O` [Example 367]: the IC50 worked out at 17.5 nM.

In the case of `Cc1nc2c(cc(-c3nc(N4CCCCC4)ns3)n2C)c(-c2cc(F)c3c(c2C)CCCO3)c1[C@H](OC(C)(C)C)C(=O)O` [Example 368], the IC50 came out at 39.5 nM. Then `Cc1nc2c(cc(-c3nc(N4CCN(C)CC4)ns3)n2C)c(-c2cc(F)c3c(c2C)CCCO3)c1[C@H](OC(C)(C)C)C(=O)O` [Example 369], with 11.3 nM; and `Cc1nc2c(cc(-c3nsc(N4CCCCC4)n3)n2C)c(-c2cc(F)c3c(c2C)CCCO3)c1[C@H](OC(C)(C)C)C(=O)O` [Example 370], with 9.5 nM; and `Cc1nc2c(cc(-c3nsc(N4CCN(C)CC4)n3)n2C)c(-c2cc(F)c3c(c2C)CCCO3)c1[C@H](OC(C)(C)C)C(=O)O` [Example 371], with 8.4 nM.

As to `Cc1nc2c(cc(-c3nc(N4CCC(C)CC4)ns3)n2C)c(-c2cc(F)c3c(c2C)CCCO3)c1[C@H](OC(C)(C)C)C(=O)O` [Example 372], the concentration for half-maximal inhibition (IC50) worked out at 36.2 nM.

`Cc1nc2c(cc(-c3nsc(N4CCN(C5CC5)CC4)n3)n2C)c(-c2cc(F)c3c(c2C)CCCO3)c1[C@H](OC(C)(C)C)C(=O)O` [Example 373]: the IC50 turned out to be 5.2 nM. For `Cc1nc2c(cc(-c3nsc(N4CCC(C)CC4)n3)n2C)c(-c2cc(F)c3c(c2C)CCCO3)c1[C@H](OC(C)(C)C)C(=O)O` [Example 374], the IC50 came to 10.8 nM. The figure for `Cc1nc2c(cc(-c3nsc(N4CCN(C5CCOCC5)CC4)n3)n2C)c(-c2cc(F)c3c(c2C)CCCO3)c1[C@H](OC(C)(C)C)C(=O)O` [Example 375] is 1.5 nM; for `Cc1nc2c(cc(-c3nnc(N4CCN(C5CCOCC5)CC4)s3)n2C)c(-c2cc(F)c3c(c2C)CCCO3)c1[C@H](OC(C)(C)C)C(=O)O` [Example 376] it is 14.4 nM.

The values above are taken from patent US20150191469A1, “COMPOUNDS AND METHODS FOR TREATING HIV” (priority 2012, published 2015).
